Molecular target: T1, Kv1.5 (Rattus norvegicus, UniProt P19024)
T1 construct: gene Kcna5; Rat Kv1.5 in pEYFP-N1 vector, expressed in HEK293 cells
Assay: whole-cell patch clamp of Kv1.[…] expressed in HEK293 cells
Format: cell-based

T1 sequence (P19024 whole entry): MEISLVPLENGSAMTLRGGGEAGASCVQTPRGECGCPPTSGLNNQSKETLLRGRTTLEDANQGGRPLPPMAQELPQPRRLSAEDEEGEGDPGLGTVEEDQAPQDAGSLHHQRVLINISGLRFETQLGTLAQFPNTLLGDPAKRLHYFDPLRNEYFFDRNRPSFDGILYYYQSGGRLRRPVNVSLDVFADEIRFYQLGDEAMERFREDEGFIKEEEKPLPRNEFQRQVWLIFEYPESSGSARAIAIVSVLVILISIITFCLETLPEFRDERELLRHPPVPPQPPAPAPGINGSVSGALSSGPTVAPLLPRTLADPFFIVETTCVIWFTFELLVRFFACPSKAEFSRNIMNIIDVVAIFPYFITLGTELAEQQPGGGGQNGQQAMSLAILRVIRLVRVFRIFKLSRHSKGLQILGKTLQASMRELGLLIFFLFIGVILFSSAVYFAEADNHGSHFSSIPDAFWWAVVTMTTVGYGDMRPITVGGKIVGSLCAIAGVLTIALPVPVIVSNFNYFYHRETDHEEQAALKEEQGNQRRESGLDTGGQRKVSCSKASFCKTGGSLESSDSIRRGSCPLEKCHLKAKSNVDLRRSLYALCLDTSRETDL

COc1cc2c(cc1OC)C(=O)C(CC1CCN(Cc3ccccc3)CC1)C2 (stereo not shown) [donepezil]
IC50: 72.5 ± 0.5 µM
